We go through three compounds from patent US5369125A, “Cholesterol-lowering agents” (Merck & Co., Inc., priority 1993, dated 1994).

In brackets after ≈: the same amount, converted by molar mass.

One experiment has as its system Ras farnesylation. The following applies: Hancock et al., Casey et al., Schafer et al.; cited from earlier work.
The target of the next experiment is T1, Squalene Synthase (Rattus norvegicus, UniProt Q02769).
T1 construct: The livers from these rats were homogenized in 5 volumes (mL/g) of ice cold 50 mM HEPES; from tissue; host or cells: liver microsomes of male Charles River CD rats fed 0.1% lovastatin
T1 sequence (Q02769 1-416): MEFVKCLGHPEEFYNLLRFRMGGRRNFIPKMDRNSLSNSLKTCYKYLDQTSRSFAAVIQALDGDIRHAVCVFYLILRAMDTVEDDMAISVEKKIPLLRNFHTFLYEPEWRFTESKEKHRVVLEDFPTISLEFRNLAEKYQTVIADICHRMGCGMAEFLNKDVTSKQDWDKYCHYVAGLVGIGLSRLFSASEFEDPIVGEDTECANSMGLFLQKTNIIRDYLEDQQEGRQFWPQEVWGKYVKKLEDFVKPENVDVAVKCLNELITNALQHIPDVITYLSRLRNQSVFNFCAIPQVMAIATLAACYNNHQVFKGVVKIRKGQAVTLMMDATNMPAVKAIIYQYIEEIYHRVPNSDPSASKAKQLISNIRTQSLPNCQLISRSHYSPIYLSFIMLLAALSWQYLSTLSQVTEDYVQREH
The experiment in a line: Squalene synthase assay (standard in vitro protocol, rat liver microsomes, [4-14C]farnesyl pyrophosphate). It counts as biochemical. The note with it: 30° C., 20 minutes. The method, then:
The intrinsic squalene synthase inhibitory activity of representative compounds of this invention was measured by the standard in vitro protocol described below:
Preparation of Rat Liver Microsomes
Male, CHARLES RIVER CD® rats (120 to 150 g) were fed a diet containing 0.1% lovastatin for 4 days. The livers from these rats were homogenized in 5 volumes (mL/g) of ice cold 50 mM HEPES (4-(2-hydroxyethyl)-1-piperazine-ethanesulfonic acid), 5 mM EDTA(ethylenediaminetetraacetic acid) pH 7.5 with a Potter-Elvehjem type tissue grinder. The homogenate was centrifuged twice at 20,000× g for 15 min. at 4° C., discarding the pellet each time. The supernatant was then centrifuged at 100,000× g for 1 hr at 4° C. The resulting microsomal pellet was resuspended in a volume of the above homogenizing buffer equal to one-fifth the volume of the original homogenate. This microsomal preparation has a protein concentration of about 7 mg/mL. The microsomal suspensions were stored in aliquots at -70° C. Squalene synthase activity in these aliquots is stable for a least several months.
Partial Purification of Prenyl Transferase
Prenyl transferase was purified to use in the enzymatic synthesis of radiolabelled farnesyl pyrophosphate. […]
(In general: Liver microsomes are a subcellular fraction often used to study metabolism.)

The subject of experiment [1] is Aspergillus fumigatus MF4839. As to the kind of experiment: Broth dilution antifungal assay (MIC), Aspergillus fumigatus. It counts as cell-based. The note with it: 24 to 48 hours at 29° C., read-out: Minimum Inhibitory Concentration (MIC). How it is done: (§1) The compounds are particularly active towards filamentous fungi and yeasts including Candida albicans and Cryptococcus neoformans. The sensitivity of filamentous fungi and yeast was determined using inhibitor dilution assays in microtiter format. The compounds were dissolved in 10% DMSO at 256 μg/mL and serially diluted in (DIFCO) Yeast Nitrogen Base supplemented with 1% glucose (YNBD) by two-fold dilutions yielding final drug concentrations ranging from 128-0.06 μg/mL. The wells were filled with 150 μL of inoculated media. Exponential phase Candida and Cryptococcus cells were diluted in YNBD such that the inoculum was 1.5-7.5×10^3 cells/mL. Aspergillus spores were harvested from a well-sporulated Sabouraud Dextrose Agar (SDA) slant in 0.01% Tween 80 and diluted into media to give an inoculum of 1×10^3 spores/mL. The microtiter dishes were incubated at 35° C. for 24 to 48 hours. […] After recording the MIC of yeasts, plates were shaken on a (SARSTEDT) TPM2 shaker to resuspend the cells and a MIC-2000 inoculator (DYNATECH) was used to transfer a 1.5 μL sample from each well in the microplate to a spot in a single-well tray containing SDA. Inoculated trays were incubated at 35° C. and results were recorded at 24 h or 48 h (for Cryptococcus). The minimum fungicidal concentration (MFC) was defined as the lowest concentration of drug showing no growth or less than 4 colonies per spot. […]
A general note: Broth dilution looks for growth in wells or tubes with falling amounts of substance.

For a further experiment, the system named is Candida albicans MY1055. As to the kind of experiment: Minimum fungicidal concentration, Candida albicans. The note with it: 35° C. It counts as cell-based. How it is done: as §1
Experiment [2] relates to Cryptococcus neoformans MY1051. As to the kind of experiment: Minimum fungicidal concentration, Cryptococcus neoformans. In kind it is cell-based. The following applies: 35° C. The method, then: as §1
Experiment [3] addresses T2, Farnesyl-protein transferase (Ftase) from bovine brain (Bos taurus, UniProt P29702+P49355).
T2 construct: Farnesyl-protein transferase (Ftase) from bovine brain was chromatographed on DEAE--Sephacel; from tissue; host or cells: bovine brain, partially purified by chromatography
The experiment in a line: Farnesyl-transferase assay (inhibition of Ras farnesylation in vitro). It counts as biochemical. The note with it: Ras-CVLS 3.5 μM, 0.25 μM [3H]FPP, partially purified bovine brain enzyme. How it is done: FARNESYL-TRANSFERASE ASSAY
Farnesyl-protein transferase (Ftase) from bovine brain was chromatographed on DEAE--Sephacel (Pharmacia, 0-0.8M NaCl gradient elution), N-octyl agarose (Sigma, 0-0.6M NaCl gradient elution), and a MONO Q HPLC column (Pharmacia, 0-0.3M NaCl gradient). Ras-CVLS at 3.5 μM, 0.25 μM [^3 H]FPP, and the indicated compounds were incubated with this partially purified enzyme preparation. The Ftase data is a measurement of the ability of the test compound to inhibit Ras farnesylation in vitro.

For the compound `CC[C@H](C)C(=O)O[C@H]1C[C@@H](C)C=C2C=C[C@H](C)[C@H](CC[C@@H]3C[C@@H](O)CC(=O)O3)[C@H]21` [lovastatin], in the experiment on Ras farnesylation, the “Inhibition of Ras farnesylation in vivo” value was “Inhibition of Ras farnesylation in vivo has been demonstrated”.

What is called IC50 is the concentration at which inhibition is half-maximal. What is called MFC is the lowest tested concentration that kills the fungus rather than only halting it. For `C=C(CC[C@]12O[C@H](C)[C@@](O)(C(=O)O)[C@](C(=O)O)(O1)[C@H](OC(=O)/C=C/[C@@H](C)C[C@@H](C)CC)[C@H]2O)[C@@H](OC(C)=O)[C@H](C)Cc1ccccc1` [Compound 128, IIA-3-methyl], the IC50 against Squalene Synthase is 0.0035 µM; in experiment [3], 3.3 µM. In addition, in experiment [1], the MIC was 16 µg/mL (≈ 24.2 µM). The results for the MFC (in the experiment on Candida albicans MY1055; in experiment [2]) were 128 µg/mL (≈ 194 µM) and 0.5 µg/mL (≈ 0.757 µM), respectively.

As to `CC[C@H](C)C(=O)O[C@H]1CCC=C2C=C[C@H](C)[C@H](CC[C@@H]3C[C@@H](O)CC(=O)O3)[C@H]21` [compactin], in the experiment with Ras farnesylation, the “Inhibition of Ras farnesylation in vivo” value is “Inhibition of Ras farnesylation in vivo has been demonstrated”.
